# Results reported in publication PMC5325082 (Molecular Pharmacology, 2017).
# Legend:
# [1] = biological target: rat α9α10 W55T/R117M receptor (Rattus norvegicus, UniProt P43144+Q9JLB5, R143M/W81T); test: ACh-evoked currents, two-electrode voltage clamp in Xenopus laevis oocytes; type: cell-based
# Description: (§1) cDNAs encoding Gallus gallus (chick) or Rattus norvegicus (rat) α9 and α10 nAChR subunits were subcloned into a modified pGEMHE vector for expression studies in Xenopus laevis oocytes. Capped cRNAs were in vitro transcribed from linearized plasmid DNA templates using RiboMAX Large Scale RNA Production System (Promega, Madison, WI). Mutant subunits were produced using Quick Change XL II kit (Stratagene, La Jolla, CA). Amino acid sequences of rat and chicken α9, α10, and Torpedo α1 subunits were aligned using ClustalW (EMBL-EBI, Wellcome Genome Campus, Hinxton, Cambridgeshire). Residues were numbered according to the corresponding Torpedo α1 subunit mature protein ([Karlin, 2002]).
# The maintenance of Xenopus laevis and the preparation and cRNA injection of stage V and VI oocytes have been described in detail elsewhere ([Verbitsky et al., 2000]). Typically, oocytes were injected with 50 nl of RNase-free water containing 0.01–1.0 ng of cRNA (at a 1:1 molar ratio when pairwise combined) and maintained in Barth’s solution at 18°C. Electrophysiological recordings were performed 2–6 days after cRNA injection under two-electrode voltage clamp with an Oocyte Clamp OC-725B or C amplifier (Warner Instruments Corp., Hamden, CT). Recordings were filtered at a corner frequency of 10 Hz using a 900BT Tunable Active Filter (Frequency Devices Inc., Ottawa, IL). Data acquisition was performed using a Patch Panel PP-50 LAB/1 interface (Warner Instruments Corp.) at a rate of 10 points per second. Both voltage and current electrodes were filled with 3 M KCl and had resistances of ∼1 MΩ. Data were analyzed using Clampfit from the pClamp 6.1 software (Molecular Devices, Sunnyvale, CA). During electrophysiological recordings, oocytes were continuously superfused (∼15 ml/min) with normal frog saline composed of: 115 mM NaCl, 2.5 mM KCl, 1.8 mM CaCl2, and 10 mM HEPES buffer, pH 7.2. […] Unless otherwise indicated, the membrane potential was clamped to −70 mV. To minimize activation of the endogenous Ca^2+ sensitive chloride current ([Elgoyhen et al., 2001]), all experiments were performed in oocytes incubated with the Ca^2+ chelator 1,2-bis(2-aminophenoxy)ethane-N,N,N′,N′-tetraacetic acid (acetoxymethyl ester) (100 µM) for 3 hours before electrophysiological recordings.
# Concentration-response curves were normalized to the maximal agonist response in each oocyte. The mean and S.E.M. values of the responses are represented. […] Data were analyzed using Clampfit from the pClamp 6.1 software. […]
# [2] = biological target: rat α9α10 nAChR (wild type) (Rattus norvegicus, UniProt P43144+Q9JLB5); test: ACh-evoked currents, two-electrode voltage clamp in Xenopus laevis oocytes, wild-type receptor; type: cell-based; settings: −70 mV
# Description: as §1
# The maintenance of Xenopus laevis and the preparation and cRNA injection of stage V and VI oocytes have been described in detail elsewhere ([Verbitsky et al., 2000]). Typically, oocytes were injected with 50 nl of RNase-free water containing 0.01–1.0 ng of cRNA (at a 1:1 molar ratio when pairwise combined) and maintained in Barth’s solution at 18°C. […] Data were analyzed using Clampfit from the pClamp 6.1 software (Molecular Devices, Sunnyvale, CA). […]
# Concentration-response curves were normalized to the maximal agonist response in each oocyte. […] Data were analyzed using Clampfit from the pClamp 6.1 software.
# [3] = biological target: T1, α9χα10χ (α9 and α10 extracellular domains fused to 5-HT3A) (UniProt P23979+P43144+Q9JLB5, L231I/L232I); test: [3H]-α-BTX radioligand binding, membranes of transfected tsA201 cells; set-up: species or system rat; settings: ACh 1 mM alone vs standard mixture of nonradioactive ligands
# T1 construct: the extracellular N-terminal domain of the α9 or α10 subunit; expressed in transfected cells; host or cells: tsA201 cells (HEK293-derived), membrane preparation
# Protocol: (§2) Chimeric subunit cDNAs containing the extracellular N-terminal domain of the α9 or α10 subunit fused to the transmembrane and intracellular domain of the mouse 5-HT3A subunit have been described previously ([Baker et al., 2004]). The mammalian cell line tsA201 (derived from the human embryonic kidney 293 cell line) was obtained from Dr. William Green (University of Chicago, Chicago). Cells were cultured in Dulbecco’s modified Eagle’s medium (Invitrogen, Paisley, United Kingdom) containing 2 mM L-GlutaMAX (Invitrogen) plus 10% heat-inactivated fetal calf serum (Sigma, Poole, United Kingdom) with penicillin (100 U/ml) and streptomycin (100 µg/ml) and were maintained in a humidified incubator containing 5% CO2 at 37°C. Cells were transiently transfected using Effectene transfection reagent (QIAGEN, Crawley, United Kingdom) according to the manufacturer’s instructions. In all cases, cells were transfected overnight and assayed for expression approximately 40–48 hours after transfection. To ensure that the levels of radioligand binding were not influenced by differences in the amount of subunit cDNA expressed, the amount of each subunit plasmid DNA and also the total amount of plasmid DNA were kept constant when subunits were expressed singly and in combination. This was achieved by the inclusion of empty plasmid expression vector when single subunits were transfected.
# (§3) Binding studies with [^3H]-α-bungarotoxin (α-BTX) in cell membrane preparations were performed essentially as described previously ([Lansdell and Millar, 2000]; [Harkness and Millar, 2002]). Membranes (typically, 10–100 µg of protein) were incubated with radioligand (final concentration 20 nM) for 150 minutes at 4°C in a total volume of 300 µl in the presence of protease inhibitors leupeptin (2 µg/ml) and pepstatin (1 µg/ml). Our standard protocol for determining nonspecific binding was the addition of 1 mM carbachol, 1 mM nicotine, and 10 µM methyllycaconitine to triplicate samples. […] In all cases the levels of specific binding were determined by subtracting the level of nonspecific binding from the total binding (both of which were determined in triplicate). The data were determined as means of three independent experiments, each performed in triplicate. Radioligand binding was assayed by filtration onto 0.5% polyethylenimine-presoaked Whatman GF/B filters (Sigma-Aldrich, Dorset, England) followed by rapid washing (typically, five washes, each of 4 ml) with ice-cold 10 mM phosphate buffer using a Brandel cell harvester, and radioactivity was determined by scintillation counting. […] Protein concentrations were determined using bovine serum albumin standards (Bio-Rad, Hercules, CA).
# α9χα10χW55T = biological target: T2, α9χα10χW55T (UniProt P23979+P43144+Q9JLB5, L231I/L232I/W81T); test: as above; set-up: species or system rat; settings: ACh 1 mM alone vs standard mixture of nonradioactive ligands
# T2 construct: containing the extracellular N-terminal domain of the α9 or α10 subunit fused to the transmembrane and intracellular domain of the mouse 5-HT3A subunit; mouse 5-HT3A subunit transmembrane and intracellular domain (fusion partner); expressed in transfected cells; host or cells: tsA201 (derived from human embryonic kidney 293), transient transfection; membrane preparations
# Protocol: as §2, §3
# Chain of rat α9α10 W55T/R117M receptor (P43144 26-479): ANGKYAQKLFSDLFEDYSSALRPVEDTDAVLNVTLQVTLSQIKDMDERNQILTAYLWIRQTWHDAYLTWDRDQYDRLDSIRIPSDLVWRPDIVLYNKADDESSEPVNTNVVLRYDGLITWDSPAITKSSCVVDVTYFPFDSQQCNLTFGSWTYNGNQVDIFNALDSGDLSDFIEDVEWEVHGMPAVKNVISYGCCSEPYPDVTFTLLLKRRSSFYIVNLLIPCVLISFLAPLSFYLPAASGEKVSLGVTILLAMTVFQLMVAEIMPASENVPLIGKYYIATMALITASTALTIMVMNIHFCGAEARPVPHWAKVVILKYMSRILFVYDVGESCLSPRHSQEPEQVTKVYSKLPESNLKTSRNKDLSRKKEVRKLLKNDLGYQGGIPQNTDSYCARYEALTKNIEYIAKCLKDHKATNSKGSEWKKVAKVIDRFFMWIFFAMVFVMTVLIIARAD
# Chain of rat α9α10 W55T/R117M receptor (Q9JLB5 25-447 W81T/R143M): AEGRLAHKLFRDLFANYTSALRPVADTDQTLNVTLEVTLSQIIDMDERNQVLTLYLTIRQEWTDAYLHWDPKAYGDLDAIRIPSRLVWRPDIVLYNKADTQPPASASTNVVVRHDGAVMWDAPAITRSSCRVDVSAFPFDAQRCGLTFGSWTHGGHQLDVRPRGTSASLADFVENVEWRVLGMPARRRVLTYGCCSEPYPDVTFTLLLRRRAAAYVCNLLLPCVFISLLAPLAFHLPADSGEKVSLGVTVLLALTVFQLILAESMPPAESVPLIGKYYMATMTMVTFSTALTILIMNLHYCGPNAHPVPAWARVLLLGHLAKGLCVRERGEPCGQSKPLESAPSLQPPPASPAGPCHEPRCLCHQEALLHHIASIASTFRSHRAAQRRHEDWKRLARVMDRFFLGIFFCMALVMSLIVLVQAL
# Chain of rat α9α10 nAChR (wild type) (P43144 26-479): as the sequence (P43144 26-479) above
# Chain of rat α9α10 nAChR (wild type) (Q9JLB5 25-447): as the sequence (Q9JLB5 25-447 W81T/R143M) above, with T57W, M119R counted along it
# T2 sequence (P23979 whole entry, looked up, stated change not applied, the tested form may be a part): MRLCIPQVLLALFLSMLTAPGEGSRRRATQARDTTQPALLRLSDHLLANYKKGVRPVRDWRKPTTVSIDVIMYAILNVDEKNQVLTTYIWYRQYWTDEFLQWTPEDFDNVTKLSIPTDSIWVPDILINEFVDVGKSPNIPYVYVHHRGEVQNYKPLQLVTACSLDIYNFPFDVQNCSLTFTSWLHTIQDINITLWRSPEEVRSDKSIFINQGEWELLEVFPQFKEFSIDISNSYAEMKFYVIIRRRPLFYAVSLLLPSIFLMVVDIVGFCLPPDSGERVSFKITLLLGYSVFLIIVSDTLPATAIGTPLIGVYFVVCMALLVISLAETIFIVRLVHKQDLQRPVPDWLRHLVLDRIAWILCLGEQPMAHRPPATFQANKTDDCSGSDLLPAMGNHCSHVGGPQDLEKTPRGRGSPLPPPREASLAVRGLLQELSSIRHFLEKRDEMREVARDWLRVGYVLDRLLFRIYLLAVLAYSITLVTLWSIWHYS
# T2 sequence (P43144 whole entry, looked up, stated change not applied, the tested form may be a part): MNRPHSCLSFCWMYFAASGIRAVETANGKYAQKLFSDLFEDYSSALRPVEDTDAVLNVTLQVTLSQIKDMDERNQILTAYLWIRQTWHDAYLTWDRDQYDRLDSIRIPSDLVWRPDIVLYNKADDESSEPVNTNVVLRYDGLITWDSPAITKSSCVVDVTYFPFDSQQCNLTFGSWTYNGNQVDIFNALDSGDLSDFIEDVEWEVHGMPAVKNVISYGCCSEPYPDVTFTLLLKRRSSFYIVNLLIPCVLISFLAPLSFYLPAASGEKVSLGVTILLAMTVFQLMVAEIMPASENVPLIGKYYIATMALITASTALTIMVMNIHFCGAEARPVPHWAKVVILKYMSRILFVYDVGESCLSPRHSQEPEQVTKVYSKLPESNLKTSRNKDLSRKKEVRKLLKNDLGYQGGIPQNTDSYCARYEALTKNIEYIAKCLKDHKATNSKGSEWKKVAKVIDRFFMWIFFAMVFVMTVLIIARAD
# T2 sequence (Q9JLB5 whole entry, looked up, stated change not applied, the tested form may be a part): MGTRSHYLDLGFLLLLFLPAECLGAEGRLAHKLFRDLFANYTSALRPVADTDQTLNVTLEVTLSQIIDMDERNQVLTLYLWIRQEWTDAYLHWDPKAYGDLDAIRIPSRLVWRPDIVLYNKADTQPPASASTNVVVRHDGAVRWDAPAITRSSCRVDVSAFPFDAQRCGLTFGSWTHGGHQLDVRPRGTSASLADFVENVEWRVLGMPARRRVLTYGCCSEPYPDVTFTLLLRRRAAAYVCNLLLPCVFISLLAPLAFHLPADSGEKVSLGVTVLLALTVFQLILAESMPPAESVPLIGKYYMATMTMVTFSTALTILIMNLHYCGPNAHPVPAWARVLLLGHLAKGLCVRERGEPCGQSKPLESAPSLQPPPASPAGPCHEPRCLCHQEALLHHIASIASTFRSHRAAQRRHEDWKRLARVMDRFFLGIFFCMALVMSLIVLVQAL
# T1 sequence (P23979 whole entry, looked up, the tested form may be a part): as the sequence (P23979 whole entry, looked up, stated change not applied, the tested form may be a part) above
# T1 sequence (P43144 whole entry, looked up, stated change not applied, the tested form may be a part): as the sequence (P43144 whole entry, looked up, stated change not applied, the tested form may be a part) above
# T1 sequence (Q9JLB5 whole entry, looked up, stated change not applied, the tested form may be a part): as the sequence (Q9JLB5 whole entry, looked up, stated change not applied, the tested form may be a part) above
structure (smiles),measurement,setting,value
"CC(=O)OCC[N+](C)(C)C [ACh, acetylcholine]",Imax (maximal evoked current),"[1]; rat α9α10 W55T/R117M, oocytes",245 ± 83 nA
same,"Free energy coupling, double-mutant cycle",[1]; α10W55 and α10R117,-1.47 kcal/mol
same,Imax (maximal evoked current),[2],298 ± 48 nA
same,Displacement of bound [3H]-α-BTX by ACh,[3],displaced as efficiently with ACh alone as with our standard mixture of nonradioactive competing ligands
same,Displacement of bound [3H]-α-BTX by ACh,α9χα10χW55T,displaced as efficiently with ACh alone as with our standard mixture of nonradioactive competing ligands
